According to ChEMBL document CHEMBL1130552, “Synthesis and biological evaluation of 14,15-dehydro-LTA4 analog” (1997):

Organism: Cavia porcellus
Assay: Relative contractile potency in guinea pig ileum assay compared to 14,15-dehydro-LTA 4 methyl ester
Type: functional

CCCCCC#CC\C=C/C=C/C=C/[C@@H](SC[C@H](NC(=O)CC[C@H](N)C(=O)O)C(=O)NCC(=O)O)[C@@H](O)CCCC(=O)O
Relative contractile potency: 0.9
